Values after ≈ are worked out from the molar mass of the structure shown. Where two headings read alike, the source gives them in different places.
Experiments:
P. mirabilis G 186 [1] = assay: Minimum filamentation / spheroplasting concentration; details: Proteus mirabilis, G186
From the text: (§7) The term “MSC” as used herein refers to minimum spheroplasting concentration, which is the minimum concentration of an antibacterial agent at which about 80% of bacterial cells covert into spheroplasts.
(§8) The term “MFC” as used herein refers to minimum filamentation concentration, which is the minimum concentration of an antibacterial agent at which about 80% of bacterial cells get elongated to form filament like structures.

Pseudomonas PBP 3 = target: T1, Pseudomonas PBP 3 (Pseudomonas aeruginosa, UniProt G3XD46); assay: biochemical; type: binding
T1 construct: endogenous in cells
Protocol: The phrase “selective and high affinity PBP binder” refers to a PBP binder which binds to only one PBP with very high affinity. In general, the term “selective and high affinity PBP binder” also includes those binders where a substantial fraction of binder selectively binds to only one PBP with high affinity.
The reaction mixtures were then denatured with 20 μl each of SDS-denaturing solution at 100° C. for 3 min PBPs were separated through 10% SDS polyacrylamide gel electrophoresis (Bio-Rad Laboratories, Hercules, Calif.). The protein gels were rinsed in water immediately after electrophoresis.

Pseudomonas PBP 5/6 = Pseudomonas PBP 5/6 (Pseudomonas aeruginosa, UniProt G3XD74); assay: PBP binding assay (Bocillin FL competition)
Chain of Pseudomonas PBP 5/6 (G3XD74 entry or part of it): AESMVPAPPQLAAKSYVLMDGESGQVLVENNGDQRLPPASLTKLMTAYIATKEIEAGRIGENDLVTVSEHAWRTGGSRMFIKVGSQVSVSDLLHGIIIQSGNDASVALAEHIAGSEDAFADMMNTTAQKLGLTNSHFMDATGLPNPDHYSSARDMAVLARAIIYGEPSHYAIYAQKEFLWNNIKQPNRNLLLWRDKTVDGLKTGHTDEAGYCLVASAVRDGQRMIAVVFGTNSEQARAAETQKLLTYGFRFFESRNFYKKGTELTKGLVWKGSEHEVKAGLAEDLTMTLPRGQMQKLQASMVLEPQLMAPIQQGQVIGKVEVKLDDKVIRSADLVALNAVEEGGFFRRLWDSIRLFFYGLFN
Protocol: (§1) The phrase “selective and high affinity PBP binder” refers to a PBP binder which binds to only one PBP with very high affinity. In general, the term “selective and high affinity PBP binder” also includes those binders where a substantial fraction of binder selectively binds to only one PBP with high affinity. […]. The term “IC50 value” of a compound refers to the concentration of the compound that reduces the binding of Bocillin-FL to PBPs by 50% as compared to when no compound was added to the reaction.
(§2) A compound of Formula (III) was prepared using the procedure disclosed in PCT International Application No. PCT/IB2012/054290 and was evaluated for its PBP binding affinity profile. […] The reaction mixtures were then denatured with 20 μl each of SDS-denaturing solution at 100° C. for 3 min PBPs were separated through 10% SDS polyacrylamide gel electrophoresis (Bio-Rad Laboratories, Hercules, Calif.). The protein gels were rinsed in water immediately after electrophoresis. […] […].

Pseudomonas PBP 1A = target: T2, Pseudomonas PBP 1A (Pseudomonas aeruginosa, UniProt Q07806); assay: PBP binding assay (Bocillin FL competition)
T2 construct: endogenous in cells
T2 sequence (Q07806 whole entry): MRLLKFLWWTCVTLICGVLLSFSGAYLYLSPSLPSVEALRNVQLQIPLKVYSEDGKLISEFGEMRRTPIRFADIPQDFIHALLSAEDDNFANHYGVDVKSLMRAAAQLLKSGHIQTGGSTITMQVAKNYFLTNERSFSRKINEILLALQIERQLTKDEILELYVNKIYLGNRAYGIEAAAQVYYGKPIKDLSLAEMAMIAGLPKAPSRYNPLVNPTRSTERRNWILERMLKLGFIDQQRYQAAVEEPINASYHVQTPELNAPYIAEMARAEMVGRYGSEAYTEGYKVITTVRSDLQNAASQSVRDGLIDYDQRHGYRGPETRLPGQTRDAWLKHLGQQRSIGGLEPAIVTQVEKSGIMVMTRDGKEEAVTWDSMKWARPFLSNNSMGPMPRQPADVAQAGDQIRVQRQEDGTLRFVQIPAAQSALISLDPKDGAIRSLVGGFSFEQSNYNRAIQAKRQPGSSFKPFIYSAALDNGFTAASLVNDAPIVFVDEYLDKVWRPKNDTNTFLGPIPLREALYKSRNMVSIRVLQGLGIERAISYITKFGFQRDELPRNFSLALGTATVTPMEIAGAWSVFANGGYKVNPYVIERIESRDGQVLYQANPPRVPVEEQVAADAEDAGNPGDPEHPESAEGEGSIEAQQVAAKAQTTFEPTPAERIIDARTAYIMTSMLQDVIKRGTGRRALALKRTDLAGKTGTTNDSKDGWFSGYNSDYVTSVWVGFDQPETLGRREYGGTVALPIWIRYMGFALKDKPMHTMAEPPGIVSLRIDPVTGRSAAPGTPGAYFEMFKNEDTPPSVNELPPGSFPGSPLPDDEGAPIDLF
Protocol: as §1, §2

[2] = tested on: MDR Klebsiella pneumoniae B 88 producing NDM, SHV & TEM beta-lactamases; assay: Time kill study at MFC and MSC; type: cell-based; details: for Bacterial count: Cefepime 8 mcg/ml (MFC), Compound of Formula (III) 0.12 mcg/ml (MSC), Imepenem 8 mcg/ml
Protocol: (§3) The synergistic killing effect of the combinations according to invention was studied by performing time kill studies. In a typical time kill study, the freshly grown cultures were diluted to the required cell density (initial starting inoculum) in Cation adjusted Muller Hinton broth medium (BD, USA). The antibacterial agents (either alone or in combination) at the required concentrations were added into the culture-containing medium. The samples were incubated under shaking condition (120 rpm) at 37° C. Enumeration of viable bacterial count was done every 2 hour by diluting in normal saline and plating on to the Tryptic Soya Agar plates (BD, USA). The plates were incubated for 24 hours to arrive at the viable bacterial count. The results are expressed in terms of Log CFU per ml. In general, the decrease of 1 Log CFU/ml, corresponds to 90% killing of bacteria. Similarly, 2 Log CFU/ml reductions indicates to 99% killing of bacteria and 3 Log CFU/ml reductions is equal to 99.9% killing of bacteria.

[3] = tested on: MDR P. mirabilis G 186 producing NDM & TEM β-lactamases; assay: Time kill study at MFC and MSC; type: cell-based; details: for Bacterial count: Cefepime 8 mcg/ml (MFC), Compound of Formula (III) 0.25 mcg/ml (MSC), Imepenem 8 mcg/ml
Protocol: as §3

[4] = tested on: Acinetobacter baumannii NCTC 13304 producing carbapenem hydrolyzing Class D OXA enzyme (OXA 27); assay: Time kill study (viability count); type: cell-based; details: Cefepime 8 μg/ml, Compound of Formula (III) 8 μg/ml, Imipenem 16 μg/ml
Protocol: (§4) The antibacterial effectiveness of various antibacterial agents in presence of a compound of Formula (III) was investigated and the results are detailed below. In a typical study, overnight cultures in Trypticase soya broth (TSB) were brought to log phase by 1 in 10 dilution in fresh cation adjusted Mueller Hinton Broth (MHB) and incubation for 2.5 hours at 35° C. in orbital shaker. Log phase cultures were diluted to desired inoculums in flasks with MHB, containing various drug concentrations. Flasks were incubated at 35° C. in orbital shaker with rotational speed of 125 rpm. Viability count was determined by 1 in 10 serial dilutions of samples in normal saline and surface spreading of 10 μl of dilutions in duplicate on Trypticase soya agar plates. Plates were incubated for 24 hours at 35° C. and colonies were enumerated to determine the colony forming units (CFU) per ml volume.

[5] = tested on: Pseudomonas aeruginosa NCTC 13437 producing carbapenem hydrolyzing MBL (VIM 10) & Class A (VEB1); assay: Time kill study (viability count); type: cell-based; details: Cefepime 8 μg/ml, Compound of Formula (III) 8 μg/ml, Imipenem 16 μg/ml
Protocol: as §4

P. mirabilis G 186 [6] = assay: MIC determination; type: cell-based; details: Proteus mirabilis, G186; P. mirabilis G 186 (NDM, TEM)
Protocol: (§5) In a typical procedure for determining MIC values, overnight grown bacterial cultures were diluted appropriately and inoculated on the agar media containing doubling concentrations of the test compounds. Observation for growth or no growth was performed after 16-20 hours of incubation at 35±2° C. in ambient air. The overall procedure was performed as per Clinical and Laboratory Standards Institute (CLSI) recommendations (Clinical and Laboratory Standards Institute (CLSI), Performance Standards for Antimicrobial Susceptibility Testing, 20th Informational Supplement, M 100-S20, Volume 30, No. 1, 2010).

K. pneumoniae B88 [7] = assay: MIC determination; type: cell-based; details: Klebsiella pneumoniae; K. pneumoniae B88 (NDM, SHV, TEM)
Protocol: as §5

K. pneumoniae B88 [8] = assay: Minimum filamentation / spheroplasting concentration; details: Klebsiella pneumoniae, B88
From the text: as §7, §8

[9] = tested on: ESBL enzymes from K. pneumoniae S48 producing Metalo betalactamase (NDM4) and Class A (CTX-M, SHV, TEM) beta-lactamase; assay: Beta-lactamase stability study (crude enzyme extract, then drug diffusion assay on E. coli ATCC 25922); type: biochemical; details: for Inhibition zone diameter after treatment with beta-lactamase enzyme: 40 μg/ml, zone on E. coli ATCC 25922
Protocol: (§6) Next, the beta-lactamase stability of some of these compounds was evaluated. In a typical stability study, ESBL enzymes from K. pneumoniae S48 producing Metalo betalactamase (NDM4) and Class A (CTX-M, SHV, TEM) beta-lactamase were isolated from freshly grown culture by 5 repetitive cycles of freeze and thaw in liquid nitrogen. […] After the stipulated incubation duration, the test compounds were extracted from the reaction mixture by the addition of 0.5 ml of Acetonitrile in 1:1 ratio (final concentration of test compound—40 μg/ml) and centrifuged at 12000 rpm for 2 min to separate precipitated protein. The activity of test compounds was measured from the supernatant by performing microbiological drug diffusion assay. For drug diffusion assay, Muller-Hinton Agar (MHA) seeded with E. coli ATCC 25922 was poured on to a bioassay plate placed on a flat surface and allowed to solidify. Appropriate concentration of the standalone and enzyme treated test compound dilutions were added to 6 mm wells cut with the help of a borer. The antibacterial activity of the test compounds was measured in terms of zones of inhibition appearing after 18-24 hours of incubation at 37° C. Measurement of diameter of zone of inhibition was undertaken to the nearest whole value with the help of ruler.

E. coli ATCC 25922 = assay: Microbiological drug diffusion assay, standalone compounds in absence of beta-lactamase enzymes; type: cell-based; details: Escherichia coli, read-out: Inhibition zone diameter
Protocol: as §6

K pneumoniae J 102 = assay: MIC determination (agar dilution, CLSI); type: cell-based; details: K pneumoniae J 102 (TEM1, SHV5, OMP); standalone
Protocol: as §5

K pneumoniae J 105 = assay: MIC determination (agar dilution, CLSI); type: cell-based; details: K pneumoniae J 105 (TEM1, SHV2, CTX-M, OMP); standalone
Protocol: as §5

K pneumoniae J 101 = assay: MIC determination (agar dilution, CLSI); type: cell-based; details: K pneumoniae J 101 (TEM1, SHV12, OMP); standalone
Protocol: as §5

K pneumoniae J 104 = assay: MIC determination (agar dilution, CLSI); type: cell-based; details: K pneumoniae J 104 (TEM1, SHV11, CTX-M, OMP); standalone
Protocol: as §5

T1 sequence (G3XD46 whole entry): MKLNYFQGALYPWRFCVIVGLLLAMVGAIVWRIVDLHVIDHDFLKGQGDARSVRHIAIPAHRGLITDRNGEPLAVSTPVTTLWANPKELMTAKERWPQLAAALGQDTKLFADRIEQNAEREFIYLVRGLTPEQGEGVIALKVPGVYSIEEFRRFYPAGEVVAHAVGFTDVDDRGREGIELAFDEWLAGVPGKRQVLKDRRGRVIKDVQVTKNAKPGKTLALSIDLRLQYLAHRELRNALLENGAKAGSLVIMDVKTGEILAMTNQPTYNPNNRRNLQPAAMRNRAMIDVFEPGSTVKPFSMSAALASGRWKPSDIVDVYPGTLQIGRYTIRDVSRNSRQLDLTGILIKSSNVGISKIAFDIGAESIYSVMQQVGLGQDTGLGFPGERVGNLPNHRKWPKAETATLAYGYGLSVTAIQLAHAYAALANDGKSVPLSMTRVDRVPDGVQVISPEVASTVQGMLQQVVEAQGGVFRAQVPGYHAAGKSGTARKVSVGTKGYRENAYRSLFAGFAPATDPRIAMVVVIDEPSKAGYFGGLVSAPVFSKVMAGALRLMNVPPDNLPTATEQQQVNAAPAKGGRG

## CO/N=C(\C(=O)N[C@@H]1C(=O)N2C(C(=O)[O-])=C(C[N+]3(C)CCCC3)CS[C@H]12)c1csc(N)n1 [Cefepime]
P. mirabilis G 186 [1]
  MFC: 8 µg/mL (≈ 16.6 µM)
Pseudomonas PBP 3
  IC50: 312 nM
Pseudomonas PBP 5/6
  IC50: > 8320 nM
Pseudomonas PBP 1A; Pseudomonas PBP 1A, read-out: IC50 (converted)
  IC50: 250 nM
[2]; 0 hour
  Bacterial count: 6.14 Log10 CFU/ml
[2]; 2 hours
  Bacterial count: 6.65 Log10 CFU/ml
[2]; 4 hours
  Bacterial count: 8.30 Log10 CFU/ml
[2]; 6 hours
  Bacterial count: 9.11 Log10 CFU/ml
[2]; 8 hours
  Bacterial count: 9.04 Log10 CFU/ml
[2]; Klebsiella pneumoniae B 88, at MFC and MSC concentration, Table 13
  Antibacterial activity (in words): did not exhibit antibacterial activity
[3]; 0 hour
  Bacterial count: 6.58 Log10 CFU/ml
[3]; 2 hours
  Bacterial count: 6.04 Log10 CFU/ml
[3]; 4 hours
  Bacterial count: 7.93 Log10 CFU/ml
[3]; 6 hours
  Bacterial count: 8.66 Log10 CFU/ml
[3]; 8 hours
  Bacterial count: 8.85 Log10 CFU/ml
[3]; P. mirabilis G 186, at MFC and MSC concentration, Table 14
  Antibacterial activity (in words): did not exhibit antibacterial activity
[4]; 0 hour
  Bacterial count: 6.3 log (CFU/ml)
[4]; 2 hours
  Bacterial count: 7.3 log (CFU/ml)
[4]; 4 hours
  Bacterial count: 7.5 log (CFU/ml)
[4]; 6 hours
  Bacterial count: 7.8 log (CFU/ml)
[4]; 8 hours
  Bacterial count: 8.0 log (CFU/ml)
[5]; 0 hour
  Bacterial count: 6.0 log (CFU/ml)
[5]; 2 hours
  Bacterial count: 6.49 log (CFU/ml)
[5]; 4 hours
  Bacterial count: 7.74 log (CFU/ml)
[5]; 6 hours
  Bacterial count: 8.02 log (CFU/ml)
[5]; 12 hours
  Bacterial count: 8.8 log (CFU/ml)
P. mirabilis G 186 [6]
  MIC: > 64 µg/mL
K. pneumoniae B88 [7]
  MIC: > 64 µg/mL
K. pneumoniae B88 [8]
  MFC: 8 µg/mL (≈ 16.6 µM)

## CC1(C)S[C@@H]2[C@H](/N=C/N3CCCCCC3)C(=O)N2[C@H]1C(=O)O [Mecillinam]
Pseudomonas PBP 5/6; read-out: IC50
  IC50: > 12300 nM
Pseudomonas PBP 1A
  IC50: > 12300 nM
[9]; 0 hour incubation at 37° C.
  Inhibition zone diameter after treatment with beta-lactamase enzyme: 15.5 mm
[9]; 1 hour incubation at 37° C.
  Inhibition zone diameter after treatment with beta-lactamase enzyme: 12 mm
[9]; 2 hours incubation at 37° C.
  Inhibition zone diameter after treatment with beta-lactamase enzyme: 0 mm
[9]; 24 hours incubation at 37° C.
  Inhibition zone diameter after treatment with beta-lactamase enzyme: 0 mm
[9]; carbapenem hydrolyzing metallo beta-lactamase, up to 24 hours
  Stability to beta-lactamase (in words): not stable to the beta-lactamase
E. coli ATCC 25922; ATCC25922, 0 h
  zone of inhibition at 40 µg/mL: 15.5 mm
E. coli ATCC 25922; ATCC25922, 1 h
  zone of inhibition at 40 µg/mL: 15.5 mm
E. coli ATCC 25922; ATCC25922, 2 h
  zone of inhibition at 40 µg/mL: 15.5 mm
E. coli ATCC 25922; ATCC25922, 24 h
  zone of inhibition at 40 µg/mL: 15.5 mm

## C[C@@H](O)[C@H]1C(=O)N2C(C(=O)O)=C(S[C@@H]3CN[C@H](C(=O)N(C)C)C3)[C@H](C)[C@H]12 [Meropenem]
K pneumoniae J 102
  MIC: 8 µg/mL (≈ 20.9 µM)
K pneumoniae J 105
  MIC: 4 µg/mL (≈ 10.4 µM)
K pneumoniae J 101
  MIC: 4 µg/mL (≈ 10.4 µM)
K pneumoniae J 104
  MIC: 4 µg/mL (≈ 10.4 µM)
